In US20150126369A1, “SYNERGISTIC HERBICIDAL COMPOSITION” (ROTAM AGROCHEM INTERNATIONAL COMPANY LIMITED, priority 2013, published 2015):

What was measured:
Format in all cases: in vivo
Chenopodium = experiment: Field test, postemergence herbicidal activity on Chenopodium in sulfonylurea-resistant rape
Description: (§1) A synergistic effect exists when the effect of the composition exceeds the sum of the effects of the compounds applied separately. The expected effect for a specific combination of two active compounds can be calculated using a so-called “Colby formula” (see S. R. Colby, “Calculating Synergistic and Antagonistic Responses of Herbicide Combinations”, Weeds 1967,15, 20-22) as follows: if
(§2) If the actually observed activity (O) is greater than the expected activity (E), then the composition is superadditive, i.e., synergism is present.
(§3) Sulfonylurea herbicides-resistant non-genetically modified rape crops were planted with typical weeds under natural outdoors conditions. When the rape plants grew, the weed populations naturally occurred. The weeds were treated during postemergence at 2-4 leaf stage. To reflect the synergistic effect, they were treated with a lower dosage than the common dosage.

Beckmannia = experiment: Field test, postemergence herbicidal activity on Beckmannia in sulfonylurea-resistant rape
Description: as §1, §2, §3

Datura = experiment: Field test, postemergence herbicidal activity against Datura in sulfonylurea-resistant rape; settings: four weeks after the treatment; for pest or weed control at 5 g/ha: Datura, post-emergence, 672 h, read-out: Injury of Datura % Experimental value
Description: (§4) A synergistic effect exists when the effect of the composition exceeds the sum of the effects of the compounds applied separately.
as §2
(§5) Sulfonylurea herbicides-resistant non-genetically modified rape crops were planted with typical weeds under natural outdoors conditions. When the rape plants grew, the weed populations naturally occurred. The weeds were treated during postemergence at 2-4 leaf stage.

Setaria = experiment: Field test, postemergence herbicidal activity on Setaria in sulfonylurea-resistant rape; settings: four weeks after the treatment; for pest or weed control at 1 g/ha: Setaria, post-emergence, 672 h, read-out: Injury of Setaria % Experimental value
Description: as §4, §2, §5

Galium = experiment: Field test, postemergence herbicidal activity on Galium in sulfonylurea-resistant rape; settings: four weeks after the treatment; for pest or weed control at 0.1 g/ha: Galium, post-emergence, 672 h, read-out: Injury of Galium % Experimental value
Description: as §4, §2, §5

Alopecurus = experiment: Field test, postemergence herbicidal activity on Alopecurus in sulfonylurea-resistant rape; settings: four weeks after the treatment; for pest or weed control at 10 g/ha: Alopecurus, post-emergence, 672 h, read-out: Injury of Alopecurus % Experimental value
Description: as §4, §2, §5

Stellaria = experiment: Field test, postemergence herbicidal activity on Stellaria in sulfonylurea-resistant rape; settings: 10 gram ai/ha, four weeks after the treatment; for pest or weed control at 10 g/ha: Stellaria, post-emergence, 672 h, read-out: Injury of Stellaria % Experimental value
Description: as §4, §2, §5

[1] = sulfonylurea alone, 5 gram ai/ha
[2] = sulfonylurea alone, 1 gram ai/ha
[3] = sulfonylurea alone, 0.1 gram ai/ha
[4] = sulfonylurea alone, 10 gram ai/ha
[5] = Chenopodium, post-emergence, 672 h, sulfonylurea alone, 10 gram ai/ha, four weeks after the treatment, read-out: Injury of Chenopodium % Experimental value
[6] = post-emergence, 672 h, sulfonylurea alone, 10 gram ai/ha, four weeks after the treatment, read-out: Injury of Beckmannia % Experimental value
[7] = sulfonylurea alone, 10 gram ai/ha, four weeks after the treatment

| Compound | pest or weed control at 5 g/ha (Datura; [1]) [%] | pest or weed control at 1 g/ha (Setaria; [2]) [%] | pest or weed control at 0.1 g/ha (Galium; [3]) [%] | pest or weed control at 10 g/ha (Alopecurus; [4]) [%] | pest or weed control at 10 g/ha (Stellaria; sulfonylurea alone) [%] | pest or weed control at 10 g/ha (Chenopodium; [5]) [%] | pest or weed control at 10 g/ha (Beckmannia; [6]) [%] | also measured |
| --- | --- | --- | --- | --- | --- | --- | --- | --- |
| CCC/C(=N\OCC)C1=C(O)CC(CC(C)SCC)CC1=O (racemic) [sethoxydim, (±)-2-[1-(ethoxyimino)butyl]-5-[2-(ethylthio)propyl]-3-hydroxy-2-cyclo hexen-1-one] |  |  |  |  |  |  |  | pest or weed control at 0.1 g/ha (Chenopodium; Chenopodium, post-emergence, 672 h, read-out: Injury of Chenopodium % Experimental value): 0%; pest or weed control at 0.2 g/ha (Beckmannia; post-emergence, 672 h, read-out: Injury of Beckmannia % Experimental value): 0% |
| COc1cc(OC)nc(NC(=O)NS(=O)(=O)N(C)S(C)(=O)=O)n1 [amidosulfuron, 1-(4,6-dimethoxypyrimidin-2-yl)-3-mesyl(methyl)sulfamoylurea] | 27 | 0 | 5 | 0 | 35 | 35.8 | 0 |  |
| COC(=O)c1ccccc1CS(=O)(=O)NC(=O)Nc1nc(OC)cc(OC)n1 [bensulfuron-methyl, methyl 2-[((4,6-dimethoxypyrimidin-2-yl)aminocarbonylamino]sulfonylmethyl)benzoate] | 32 | 0 | 16 | 0 | 64 | 12.2 | 0 |  |
| COc1nc(C)nc(NC(=O)NS(=O)(=O)c2ccccc2Cl)n1 [chlorsulfuron] | 34 | 0 | 10 | 54 | 55 | 53.6 | 36.2 |  |
| COc1cc(OC)nc(NC(=O)NS(=O)(=O)Nc2ccccc2C(=O)C2CC2)n1 [cyclosulfamuron] | 26 | 0 | 9 | 0 | 48 | 4.1 | 0 |  |
| COC(=O)c1ccccc1S(=O)(=O)NC(=O)Nc1nc(C)nc(OC)n1 [metsulfuron-methyl, methyl 2-[(4-methoxy-6-methyl-1,3,5-triazin-2-yl)ureidosulfonyl]benzoate] | 27 | 0 | 11 | 82 | 58 | 88.4 | 24.8 |  |
| Cc1ccnc(NC(=O)NS(=O)(=O)c2ccccc2[N+](=O)[O-])n1 [monosulfuron] |  |  |  |  |  |  |  | Injury of Datura % Experimental value (Datura; [1]): 24%; Injury of Setaria % Experimental value (Setaria; [2]): 0%; Injury of Galium % Experimental value (Galium; [3]): 7%; Injury of Alopecurus % Experimental value (Alopecurus; [4]): 5%; Injury of Stellaria % Experimental value (Stellaria; sulfonylurea alone): 34%; Injury of Chenopodium % Experimental value (Chenopodium; [7]): 23.5%; Injury of Beckmannia % Experimental value (Beckmannia; [7]): 7% |
| COc1cc(OC)nc(NC(=O)NS(=O)(=O)c2ncccc2C(=O)N(C)C)n1 [nicosulfuron, 2-(4,6-dimethoxypyrimidin-2-ylcarbamoylsulfamoyl)-N,N-dimethylnicotinamide] | 11 | 2 | 1 | 5 | 60 | 4 | 50.3 |  |
| COC(=O)c1sccc1S(=O)(=O)NC(=O)Nc1nc(C)nc(OC)n1 [thifensulfuron-methyl, 3-(4-methoxy-6-methyl-1,3,5-triazin-2-yl)-1-(2-methoxyformylthiophen-3-yl)-sulfonylurea] | 22 | 0 | 8 | 0 | 57 | 8.1 | 0 |  |
| COc1nc(C)nc(NC(=O)NS(=O)(=O)c2ccccc2OCCCl)n1 [triasulfuron, 1-[2-(2-chloroethoxyl)phenylsulfonyl]-3-(4-methoxy-6-methyl-1,3,5-triazin-2-yl)urea] | 28 | 0 | 13 | 0 | 40 | 22.5 | 0 |  |
| (±)-2-[(E)-3-chloroallyloxyimino]propyl-5-[2-(ethylthio) propyl]-3-hydroxycyclohexen-2-one [clethodim] |  |  |  |  |  |  |  | Injury of Datura % Experimental value (Datura; clethodim alone, 50 gram ai/ha): 0%; Injury of Setaria % Experimental value (Setaria; clethodim alone, 50 gram ai/ha): 57.4%; Injury of Galium % Experimental value (Galium; clethodim alone, 10 gram ai/ha): 0%; Injury of Alopecurus % Experimental value (Alopecurus; clethodim alone, 1 gram ai/ha): 5%; Injury of Stellaria % Experimental value (Stellaria; clethodim alone): 0% |
